Assay results: patent US20060241082A1, “Modulating vesicular monoamine transporter trafficking and function: a novel approach for the treatment of parkinson's disease” (priority 2002, published 2006)
Entries after “also recorded” stand apart in the source; their conditions may differ.

Columns and labels:
VMAT-2 [1] = test: VMAT-2 immunoreactivity in striatal subcellular fractions (P2, P3, S3) of treated rats (Western blot); type: in vivo, rat; settings: 1 h
Protocol: Striatal synaptosomes were prepared from rats decapitated 1 h after treatment as previously described (Fleckenstein et al., 1997). Briefly, striatal tissue was homogenized in cold 0.32 M sucrose and centrifuged (800×g for 12 min; 4° C.). The supernatant (S1) was then centrifuged (22,000×g for 15 min; 4° C.) and the resulting pellet (P2, synaptosomal fraction) was resuspended at 50 mg original wet weight/ml in cold water and a portion saved for western blot analysis. The remainder of the synaptosomal sample was centrifuged for 20 min at 22,000×g (4° C.) to pellet lysed synaptosomal membranes (P3, synaptosomal membrane fraction), which were then resuspended at 50 mg original wet weight/ml and saved for western blot analysis. Prior to resuspension of the plasmalemmal membrane fraction the supernatant (S3, vesicle-enriched fraction) was removed and saved for western blot analysis.
Binding of VMAT-2 antibody was performed using 60 μl aliquots of synaptosomal (P2), synaptosomal membrane (P3), or vesicle-enriched (S3) preparations. Each aliquot was added to 20 μl of loading buffer (final concentration: 2.25% sodium dodecyl sulfate, 18% glycerol, 180 mM Tris base (pH 6.8), 10% β-mercapto-ethanol and bromophenol blue), boiled for 10 min, and loaded on a 10% sodium dodecyl sulfate-polyacrylamide gel. Following electrophoresis, samples were transferred to polyvinlylidene difluoride membrane, blocked with 5% nonfat dry milk in Tris-buffered saline with tween (250 mM NaCl, 50 mM Tris pH 7.4 and 0.05% Tween 20), and probed with the VMAT-2 antibody (provided by J.W.H.). Bound antibody was visualized with HRP-conjugated goat anti-rabbit antibody, and antigen-antibody complexes were visualized by chemiluminescence. Multiple exposures of blots were obtained to ensure development within the linear range of the film. Bands on blots were quantified by densitometry using Kodak 1D image-analysis software.
Fresh striatal tissue was homogenized in ice-cold 0.32 M sucrose and centrifuged (800×g for 12 min; 4° C.). […] Resuspended tissue was aliquoted into two test tubes. One aliquot was centrifuged (22,000×g for 10 min; 4° C.) to separate plasmalemmal membranes from the synaptic vesicle-enriched fraction. The resulting supernatant (S3) contained the vesicular subcellular fraction of interest, and the pellets (P3; plasmalemmal membrane fraction) were resuspended in cold distilled deionized water.
VMAT-2 antibody was purchased from Chemicon (Temecula, Calif.; AB1767). Binding of VMAT-2 antibody was performed using 60 μl of whole synaptosomal, plasmalemmal membrane or vesicle subcellular fractions. Samples were added to 20 μl of loading buffer (final concentration: 2.25% SDS, 18% glycerol, 180 mM Tris Base (pH 6.8), 10% […] and bromophenol blue). Approximately 60 μg protein of the whole synaptosomal fraction, 40 μg protein of the plasmalemmal membrane fraction or 20 μg protein of the vesicle subcellular fraction was loaded per well in a 10% SDS-polyacrylamide gel. Following electrophoresis, samples were transferred to polyvinylidene difluoride hybridization transfer membrane (New England Nuclear (NEN), Boston, Mass.). All subsequent incubation steps were performed at room temperature while shaking. Each membrane was first blocked for 2 h in 100 ml of tris buffer saline with tween (TBST; 250 mM NaCl, 50 mM tris pH 7.4 and 0.05% tween 20) containing 5% nonfat dry milk. Each membrane was then incubated with anti-VMAT-2 antibody (1:4000 dilution) in 13 ml of TBST with 5% milk for 1 h and then washed 5 times (2×1 min wash; 3×5 min wash) in 70 ml TBST with 5% milk.

[2] = Vesicular DA content in purified striatal vesicles of treated rats; type: in vivo, rat
Protocol: Purified striatal vesicles were prepared as described above. The resulting vesicular pellet was sonicated for approximately 5 sec in cold tissue buffer (0.05 M sodium phosphate/0.03 M citric acid buffer with 15% methanol (v/v); pH 2.5) at a concentration of 100 mg/ml (original wet weight of tissue), and centrifuged for 15 min at 22,000×g. Tissue pellets were retained and protein was determined according to the method of Lowry et al. (1951). 40 μl of supernatant was injected onto a high performance liquid chromatograph system coupled to an electrochemical detector (+0.73 V) for separation and quantitation of DA levels using the method of Chapin et al. (1986).

VMAT-2 [3] = target: VMAT-2 (Rattus norvegicus, UniProt Q01827); test: [3H]DHTBZ binding in purified striatal vesicles prepared from treated rats
VMAT-2 (Rattus norvegicus, UniProt Q01827), sequence (Q01827 whole entry): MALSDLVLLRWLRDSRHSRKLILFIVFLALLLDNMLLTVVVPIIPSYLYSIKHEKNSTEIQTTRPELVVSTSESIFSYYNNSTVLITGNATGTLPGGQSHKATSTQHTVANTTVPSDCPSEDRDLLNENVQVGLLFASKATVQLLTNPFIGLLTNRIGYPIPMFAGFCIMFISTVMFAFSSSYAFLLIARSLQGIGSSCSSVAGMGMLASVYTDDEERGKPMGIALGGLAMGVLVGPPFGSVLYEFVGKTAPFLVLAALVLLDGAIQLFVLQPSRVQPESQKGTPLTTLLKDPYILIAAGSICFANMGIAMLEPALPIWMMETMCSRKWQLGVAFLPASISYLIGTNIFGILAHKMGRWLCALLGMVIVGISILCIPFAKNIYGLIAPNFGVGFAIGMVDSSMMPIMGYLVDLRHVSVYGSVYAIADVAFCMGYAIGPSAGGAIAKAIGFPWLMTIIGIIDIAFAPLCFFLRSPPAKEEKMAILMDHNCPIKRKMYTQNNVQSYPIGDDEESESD
Protocol: Synaptic vesicles were obtained from synaptosomes prepared from rat striatum as described above. Synaptosomes were resuspended and homogenized in cold distilled deionized water. Osmolarity was restored by addition of HEPES and potassium tartrate 245 and 100 mM (final concentrations; pH 7.5), respectively. Samples were centrifuged for 20 min at 20,000×g (4° C.) to remove lysed synaptosomal membranes. MgSO4 (1 mM, final concentration) was added to the supernatant, which was then centrifuged for 45 min at 100,000×g (4° C.). The resulting vesicular pellet was resuspended in wash buffer at a concentration of 50 mg/ml (original tissue weight). […] Binding of [^3H]DHTBZ was performed as described by Teng et al. (1998). Briefly, 200 μl of the synaptic vesicle preparation (˜6 μg of protein) was incubated in wash buffer in the presence of [^3H]DHTBZ (2 nM final concentration) for 10 min at 25° C. The reaction was terminated by addition of 1 ml of cold wash buffer and rapid filtration through Whatman GF/F filters soaked in 0.5% polyethylenimine. Filters were washed three times with ice-cold wash buffer. Nonspecific binding was determined by coincubation with 20 μM tetrabenazine. All protein concentrations were determined by a BioRad protein assay (Bio-Rad, Richmond, Calif.).
Binding of [^3H]DHTBZ was performed as described by Teng et al. (1998). Briefly, 200 μl (˜6 μg protein) of the synaptic vesicle preparation was incubated in wash buffer in the presence of [^3H]DHTBZ (2 nM final concentration except in kinetic analyses wherein 0.25-500 nM DHTBZ was employed) for 10 m in at 25° C. The reaction was terminated by addition of 1 ml cold wash buffer and rapid filtration through Whatman GF/F filters soaked in 0.5% polyethylenimine. Filters were washed three times with ice-cold wash buffer. Radioactivity trapped in filters was counted using a liquid scintillation counter. Nonspecific binding was determined by coincubation with 20 μM TBZ. All protein concentrations were determined by a Bio-Rad protein assay (Bio-Rad Inc.).
Binding of[^3H]DHTBZ was performed as described by Teng et al. (1998). Briefly, 200 μl (˜5 μg protein) of the synaptic vesicle preparation was incubated in wash buffer in the presence of [^3H]DHTBZ (2 nM final concentration except in kinetic analyses wherein 0.25-500 nM DHTBZ was employed) for 10 m in at 25° C. The reaction was terminated by addition of 1 ml cold wash buffer and rapid filtration through Whatman GF/F filters soaked in 0.5% polyethylenimine. Filters were washed three times with ice-cold wash buffer. Radioactivity trapped in filters was counted using a liquid scintillation counter. Nonspecific binding was determined by coincubation with 20 μM TBZ. All protein concentrations were determined by a Bio-Rad protein assay (Bio-Rad Inc.).

[4] = Striatal tissue DA content of treated rats (HPLC); type: in vivo, rat; settings: rats
Protocol: On the day of the assay, frozen tissue samples were thawed, sonicated for 3-5 s in tissue buffer (0.05 M sodium phosphate/0.03 M citric acid buffer with 15% methanol (v/v); pH 2.78), and centrifuged for 15 min at 22,000×g. Tissue pellets were retained and protein determined according to the method of Lowry et al. (1951). The supernatant was centrifuged a second time for 15 min at 22,000×g. 20 μl of supernatant were injected onto a high performance liquid chromatograph system coupled to an electrochemical detector (+0.73 V) for separation and quantitation of dopamine levels using the method of Chapin et al. (1986).

VMAT-2 [5] = target: VMAT-2 (Mus musculus, UniProt Q8BRU6); test: Vesicular [3H]dopamine uptake in striatal vesicles prepared from treated mice; type: in vivo
VMAT-2 (Mus musculus, UniProt Q8BRU6), sequence (Q8BRU6 whole entry): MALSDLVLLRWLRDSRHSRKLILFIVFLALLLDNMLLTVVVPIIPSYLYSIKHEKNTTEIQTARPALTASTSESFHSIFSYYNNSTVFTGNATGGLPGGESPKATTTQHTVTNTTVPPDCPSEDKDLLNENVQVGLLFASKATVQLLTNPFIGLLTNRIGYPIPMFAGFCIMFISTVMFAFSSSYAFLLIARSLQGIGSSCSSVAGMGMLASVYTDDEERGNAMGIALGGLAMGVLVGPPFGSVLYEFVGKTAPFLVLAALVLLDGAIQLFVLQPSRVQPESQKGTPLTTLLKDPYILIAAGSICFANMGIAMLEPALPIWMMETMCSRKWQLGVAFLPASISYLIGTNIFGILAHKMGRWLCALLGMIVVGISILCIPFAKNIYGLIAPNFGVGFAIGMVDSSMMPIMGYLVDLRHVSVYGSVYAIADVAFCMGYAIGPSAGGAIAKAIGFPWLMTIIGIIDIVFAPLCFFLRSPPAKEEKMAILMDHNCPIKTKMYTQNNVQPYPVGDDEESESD
Protocol: (A. E. Fleckenstein, et al., J. Pharmacol Exp Ther. (1997) 282:834-838). Briefly, fresh tissue was homogenized in ice-cold 0.32 M sucrose. The homogenate was centrifuged (800×g for 12 min; 4° C.), and the supernatant (S1) was carefully removed and centrifuged (22,000×g for 15 min; 4° C.) to obtain the synaptosomal-containing pellet (P2). The resulting P2 were resuspended and homogenized in ice-cold distilled deionized water. Osmolarity was restore by addition 25 mM HEPES and 100 mM potassium tartrate (final concentration; pH 7.5 at 4° C. respectively). […] The resultant S3 removed and MgSO4 added (final concentration of [1 mM] pH 7.5 at 4° C.) and centrifuged at 100,000×g for 45 min. The final P4 were resuspended at 50 mg/ml (original tissue wet weight).

[6] = METH 4 x 7.5 mg/kg s.c., 2-h intervals
[7] = methamphetamine 4 x 10 mg/kg s.c.

COC(=O)C(c1ccccc1)C1CCCCN1 (stereo not shown) [MPD, methylphenidate]
VMAT-2 immunoreactivity in the plasmalemmal membrane fraction (VMAT-2 [1]; MPD 40 mg/kg s.c. single): decreased | VMAT-2 immunoreactivity in the vesicular subcellular fraction (VMAT-2 [1]; MPD 40 mg/kg s.c. single): increases | VMAT-2 immunoreactivity in the whole synaptosomal fraction (VMAT-2 [1]; MPD 40 mg/kg s.c. single): no change | increase in vesicular DA levels ([2]; rats, 3 injections of MPD 5 mg/kg s.c. over a 5 h period, 1 h after the last MPD injection): ~140% | effect of MPD post-treatment on the METH-induced decrease in vesicular DA content ([2]; rats, 3 injections of MPD after multiple METH regimen, 6 h after METH treatment): reversed | transporter Bmax for [3H]DHTBZ (VMAT-2 [3]; MPD-treated rats): 28.87 fmol/μg protein | effect of MPD post-treatment on the METH-induced decrease in DHTBZ binding (VMAT-2 [3]; rats, 1, 2 or 3 injections of MPD 5 mg/kg s.c. during the initial 6-h period after METH): reversed | DHTBZ binding after MPD treatment per se (VMAT-2 [3]; rats, MPD 5 mg/kg s.c. injections): increased | binding of the VMAT-2 ligand [3H]DHTBZ after a single MPD administration (VMAT-2 [3]; rats, MPD 5-40 mg/kg s.c., 1 h): increase | total tissue DA concentrations ([4]; 3 injections of MPD 5 mg/kg s.c., 1 h after the last MPD injection): without altering | total DA levels 7 d after MPD per se ([4]; MPD 5 mg/kg s.c.): did not alter | effect of post-treatment with a single MPD injection on the 7-d striatal DA depletions caused by METH ([4]; MPD 5 mg/kg s.c. 1 h after the last METH (4 x 7.5 mg/kg s.c.)): partially reversed | effect of two or three MPD injections on the persistent METH-induced striatal DA depletions ([4]; MPD 5 mg/kg s.c. at 1 and 3 h, or 1, 3 and 5 h after the last METH): completely prevented | vesicular dopamine uptake after a single injection (VMAT-2 [5]; methylphenidate 10 mg/kg s.c. or cocaine 30 mg/kg i.p., vesicles prepared 1 h after treatment): increased

CN[C@@H](C)Cc1ccccc1 (racemic) [METH, methamphetamine]
VMAT-2 immunoreactivity in the plasmalemmal membrane fraction (P3) (VMAT-2 [1]; [6]): no change | VMAT-2 immunoreactivity in the vesicular subcellular fraction (S3) (VMAT-2 [1]; [6]): rapidly decreased | VMAT-2 immunoreactivity in the whole synaptosomal fraction (P2) (VMAT-2 [1]; [6]): Slight decreases; also recorded: no change | decrease in VMAT-2 immunoreactivity in the P2 fraction (VMAT-2 [1]; methamphetamine 4 x 10 mg/kg s.c., 2-h intervals): 25% | decrease in VMAT-2 immunoreactivity in the P2 fraction (VMAT-2 [1]; methamphetamine 4 x 10 mg/kg s.c., 2-h intervals, listed as methamphetamine): 40% | VMAT-2 immunoreactivity in the P3 fractions (VMAT-2 [1]; [7]): no difference | decrease in VMAT-2 immunoreactivity in the S3 fraction (VMAT-2 [1]; [7]): 80% | vesicular DA levels ([2]; METH-treated rats, 4 x 7.5 mg/kg s.c., 1 h after treatment, n=6): 2.30±2.5 pg/μg protein | decrease in vesicular DA levels ([2]; rats, METH 4 x 7.5 mg/kg s.c., 2-h intervals, 1 h after treatment): 49% | decrease in vesicular DA content ([2]; rats, multiple METH, 6 h after drug treatment): 60% | DHTBZ binding 1 h after the last METH injection (VMAT-2 [3]; rats, METH 4 x 7.5 mg/kg s.c., 2-h intervals): rapidly decreased | striatal DA levels 7 d after treatment ([4]; METH 4 x 7.5 mg/kg s.c., 2-h intervals, vs saline/saline): decreased | decrease in whole tissue DA content ([4]; multiple METH, 6 h after drug treatment): 60% | vesicular [3H]dopamine uptake (VMAT-2 [5]; methamphetamine 4 x 10 mg/kg s.c., 2-h intervals, 1 and 24 h after treatment): rapidly decreased
